# From US7371741B2, “Estradiol derivatives and pharmaceutical compositions using same” (EntreMed, Inc., priority 2003, dated 2008)
# Tests used:
# [1] = tested on: HUVEC: non-transformed early passage human umbilical vein endothelial cells; assay: In vitro anti-proliferative activity, BrdU incorporation, HUVEC; type: cell-based; details: 50% inhibition of proliferation, BrdU incorporation into DNA
# Experimental: (§1) Determination of in vitro anti-proliferative activity of substituted estradiol analogs: In vitro anti-proliferative or anti-mitogenic activity was determined using a commercially available cell-based assay in 96-well tissue culture plates with assessment of proliferation by evaluating DNA synthesis through incorporation into DNA of immuno-reactive (BrdU) nucleotides. The cell types used are commercially available (MDA-MB-231: breast cancer; U87-MG: glioblastoma; PC3: prostate cancer; HUVEC: non-transformed early passage human umbilical vein endothelial cells). These assays, and the many assay variations possible to determine in vitro anti-proliferative or anti-mitogenic activity, are well known to those skilled in the art. The concentration which causes 50% inhibition of proliferation (IC50) was estimated from a dose-response curve generally carried out with a range of concentrations from ≧100 microg/mL to ≦0.01 microg/mL.
# [2] = tested on: PC3: prostate cancer; assay: In vitro anti-proliferative activity, BrdU incorporation, PC3; type: cell-based; details: PC3 cells, 50% inhibition of proliferation, BrdU incorporation into DNA
# Experimental: as §1
# [3] = tested on: MDA-MB-231: breast cancer; assay: In vitro anti-proliferative activity, BrdU incorporation, MDA-MB-231; type: cell-based; details: MDA-MB-231 cells, 50% inhibition of proliferation, BrdU incorporation into DNA
# Experimental: as §1
# [4] = tested on: chick embryo chorioallantoic membrane; assay: Chick embryo chorioallantoic membrane (CAM) assay; type: in vivo; details: 100 μg methylcellulose disk, after 48 hours
# Excerpt: Anti-proliferative activity can be evaluated in situ by testing the ability of an improved estradiol derivative to inhibit the proliferation of new blood vessel cells (angiogenesis). A suitable assay is the chick embryo chorioallantoic membrane (CAM) assay described by Crum et al. Science 230:1375 (1985). See also, U.S. Pat. No. 5,001,116, hereby incorporated by reference, which describes the CAM assay. Briefly, fertilized chick embryos are removed from their shell on day 3 or 4, and a methylcellulose disc containing the drug is implanted on the chorioallantoic membrane. The embryos are examined 48 hours later and, if a clear avascular zone appears around the methylcellulose disc, the diameter of that zone is measured.
# [5] = tested on: U87-MG: glioblastoma; assay: In vitro anti-proliferative activity, BrdU incorporation, U87-MG; type: cell-based; details: U87-MG cells, 50% inhibition of proliferation, BrdU incorporation into DNA
# Experimental: as §1
smiles,measurement,setting,value
"COc1cc2c(cc1O)CC[C@@H]1[C@@H]2CC[C@]2(C)[C@@H](O)CC[C@@H]12 [Compound 1, 2-methoxyestradiol, reference compound]",IC50,[1]; Homo sapiens,680 ± 150 nM
same,IC50,"[2]; Homo sapiens, PC-3",1080 ± 500 nM
same,IC50,[3]; Homo sapiens,690 ± 140 nM
same,inhibition of cell mitosis and growth of new blood vessels (CAM),[4],inhibit cell mitosis and the growth of new blood vessels
"COc1cc2c(cc1F)CC[C@@H]1[C@@H]2CC[C@]2(C)C(=O)CC[C@@H]12 [Compound 40, 3-fluoro-2-methoxyestra-1,3,5(10)-trien-17-one]",IC50,[1]; Homo sapiens,2100 ± 230 nM
same,IC50,"[5]; Homo sapiens, U-87 MG",26000 ± 3380 nM
same,IC50,"[2]; Homo sapiens, PC-3",9260 ± 730 nM
same,IC50,[3]; Homo sapiens,2940 ± 800 nM
"COc1cc2c(cc1NC=O)CC[C@@H]1[C@@H]2CC[C@]2(C)C(O)CC[C@@H]12 (stereo partly drawn) [Compound 43, 3-Formamide-2-methoxyestra-1,3-5(10)-trien-17-ol]",IC50,[1],70 ± 20 nM
same,IC50,[5],2700 ± 220 nM
same,IC50,[2],1340 ± 20 nM
same,IC50,[3],780 ± 10 nM
"COc1cc2c(cc1NC=O)CC[C@@H]1[C@@H]2CC[C@]2(C)C(=O)CC[C@@H]12 [Compound 43A, 3-formamide-2-methoxyestra-1,3,5(10)-triene-17-one]",IC50,[1],530 ± 220 nM
same,IC50,[5],940 ± 90 nM
same,IC50,[2],610 ± 270 nM
same,IC50,[3],1220 ± 600 nM
"CCOc1cc2c(cc1NC=O)CC[C@@H]1[C@@H]2CC[C@]2(C)C(=O)CC[C@@H]12 [Compound 44A, 3-Formamide-2-ethoxyestra-1,3-5(10)-trien-17-one]",IC50,[1],13200 ± 2200 nM
same,IC50,[5],21100 nM
same,IC50,[2],27700 ± 620 nM
same,IC50,[3],24900 ± 5630 nM
"COc1cc2c(cc1OS(N)(=O)=O)CC[C@@H]1[C@@H]2CC[C@]2(C)CCC[C@@H]12 [Compound 46, 3-sulfamate-2-methoxyestra-1,3,5(10)-triene]",IC50,[1],210 ± 150 nM
same,IC50,[5],720 ± 40 nM
same,IC50,[2],380 ± 210 nM
same,IC50,[3],380 ± 150 nM
"C=Cc1cc2c(cc1OC)[C@H]1CC[C@]3(C)CCC[C@H]3[C@@H]1CC2 [Compound 52, 3-Vinyl-2-methoxyestra-1,3,5(10)-triene]",IC50,[1]; Homo sapiens,580 ± 40 nM
same,IC50,"[5]; Homo sapiens, U-87 MG",3140 ± 520 nM
same,IC50,"[2]; Homo sapiens, PC-3",2120 ± 640 nM
same,IC50,[3]; Homo sapiens,1860 ± 220 nM
"COc1cc2c(cc1C(N)=O)CC[C@@H]1[C@@H]2CC[C@]2(C)CCC[C@@H]12 [Compound 58, (2-Methoxyestra-1,3,5(10)-trien-3-yl)-3-carboxamide]",IC50,[1],1420 ± 410 nM
same,IC50,[5],4520 ± 1300 nM
same,IC50,[2],2580 ± 360 nM
same,IC50,[3],5230 ± 1950 nM
"COc1cc2c(cc1N)CC[C@@H]1[C@@H]2CC[C@]2(C)CCC[C@@H]12 [Compound 61, 3-amino-2-methoxyestra-1,3,5(10)-triene]",IC50,[1]; Homo sapiens,6430 ± 1320 nM
same,IC50,"[5]; Homo sapiens, U-87 MG",10200 ± 3780 nM
same,IC50,"[2]; Homo sapiens, PC-3",8630 ± 180 nM
same,IC50,[3]; Homo sapiens,7620 ± 430 nM
"COc1cc2c(cc1NC=O)CC[C@@H]1[C@@H]2CC[C@]2(C)CCC[C@@H]12 [Compound 64, 3-formamide-2-methoxyestra-1,3,5(10)-triene]",IC50,[1],5800 ± 730 nM
same,IC50,[5],23200 ± 2000 nM
same,IC50,[2],9240 ± 590 nM
same,IC50,[3],8290 ± 1640 nM
"C=C1CC[C@H]2[C@@H]3CCc4cc(OS(N)(=O)=O)c(OC)cc4[C@H]3CC[C@]12C [Compound 70, 17-methylene-3-sulfamate-2-methoxyestra-1,3,5(10)-triene]",IC50,[1],580 ± 30 nM
same,IC50,[5],700 ± 60 nM
same,IC50,[2],910 ± 320 nM
same,IC50,[3],560 ± 20 nM
"C=C1CC[C@H]2[C@@H]3CCc4cc(OS(=O)(=O)C(F)(F)F)c(OC)cc4[C@H]3CC[C@]12C [Compound 73, 3-triflic-17-methylene-2-methoxyestra-1,3,5(10)-triene]",IC50,[1],> 100000 nM
same,IC50,[5],> 100000 nM
same,IC50,[2],> 100000 nM
same,IC50,[3],> 100000 nM
"C=C1CC[C@H]2[C@@H]3CCc4cc(C(N)=O)c(OC)cc4[C@H]3CC[C@]12C [Compound 82, 2-Methoxy-17-methyleneestra-1,3,5(10)-triene-3-carboxamide]",IC50,[1]; Homo sapiens,120 ± 60 nM
same,IC50,"[5]; Homo sapiens, U-87 MG",250 ± 20 nM
same,IC50,"[2]; Homo sapiens, PC-3",250 ± 10 nM
same,IC50,[3]; Homo sapiens,190 ± 80 nM
"C=C1CC[C@H]2[C@@H]3CCc4cc(N)c(OC)cc4[C@H]3CC[C@]12C [Compound 85, 3-amino-17-methylene-2-methoxyestra-1,3,5(10)-triene]",IC50,[1]; Homo sapiens,1000 ± 190 nM
same,IC50,"[5]; Homo sapiens, U-87 MG",5510 ± 460 nM
same,IC50,"[2]; Homo sapiens, PC-3",2400 ± 390 nM
same,IC50,[3]; Homo sapiens,2110 ± 570 nM
"C=C1CC[C@H]2[C@@H]3CCc4cc(N)c(OCC)cc4[C@H]3CC[C@]12C [Compound 86, 3-amino-17-methylene-2-ethoxyestra-1,3,5(10)-triene]",IC50,[1]; Homo sapiens,2310 ± 50 nM
same,IC50,"[5]; Homo sapiens, U-87 MG",7290 ± 2260 nM
same,IC50,"[2]; Homo sapiens, PC-3",2750 ± 220 nM
same,IC50,[3]; Homo sapiens,2130 ± 120 nM
"C=C1CC[C@H]2[C@@H]3CCc4cc(NC=O)c(OC)cc4[C@H]3CC[C@]12C [Compound 88, 3-formamide-17-methylene-2-methoxyestra-1,3,5(10)-triene]",IC50,[1],220 ± 30 nM
same,IC50,[5],530 ± 240 nM
same,IC50,[2],240 ± 60 nM
same,IC50,[3],300 ± 80 nM
"C=C1CC[C@H]2[C@@H]3CCc4cc(NC=O)c(OCC)cc4[C@H]3CC[C@]12C [Compound 89, 3-formamide-17-methylene-2-ethoxyestra-1,3,5(10)-triene]",IC50,[1],2100 ± 20 nM
same,IC50,[5],7730 nM
same,IC50,[2],1590 ± 190 nM
same,IC50,[3],2410 ± 130 nM
"CC=C1CC[C@H]2[C@@H]3CCc4cc(OS(N)(=O)=O)c(OC)cc4[C@H]3CC[C@]12C [Compound 94, 3-sulfamate-17-ethylene-2-methoxyestra-1,3,5(10)-triene]",IC50,[1],590 nM
same,IC50,[5],640 ± 90 nM
same,IC50,[2],660 ± 50 nM
same,IC50,[3],580 ± 20 nM
"CC=C1CC[C@H]2[C@@H]3CCc4cc(N)c(OC)cc4[C@H]3CC[C@]12C [Compound 109, 3-amino-17-ethylene-2-methoxyestra-1,3,5(10)-triene]",IC50,[1],720 ± 100 nM
same,IC50,[5],2350 ± 410 nM
same,IC50,[2],920 ± 110 nM
same,IC50,[3],1940 ± 270 nM
"CC=C1CC[C@H]2[C@@H]3CCc4cc(NC=O)c(OC)cc4[C@H]3CC[C@]12C [Compound 112, 3-formamide-17-ethylene-2-methoxyestra-1,3,5(10)-triene]",IC50,[1],580 nM
same,IC50,[5],770 ± 60 nM
same,IC50,[2],740 ± 10 nM
same,IC50,[3],560 ± 20 nM
"COc1cc2c(cc1OS(N)(=O)=O)CC[C@@H]1[C@@H]2CC[C@]2(C)C(C)CC[C@@H]12 (stereo partly drawn) [Compound 118, 3-sulfamate-17-methyl-2-methoxyestra-1,3,5(10)-triene]",IC50,[1],590 ± 100 nM
same,IC50,[5],640 ± 10 nM
same,IC50,[2],820 ± 60 nM
same,IC50,[3],660 ± 100 nM
"CCOc1cc2c(cc1OS(N)(=O)=O)CC[C@@H]1[C@@H]2CC[C@]2(C)C(C)CC[C@@H]12 (stereo partly drawn) [Compound 119, 3-sulfamate-17-methyl-2-ethoxyestra-1,3,5(10)-triene]",IC50,[1],910 ± 90 nM
same,IC50,[5],6410 nM
same,IC50,[2],830 nM
same,IC50,[3],1550 ± 390 nM
"COc1cc2c(cc1N)CC[C@@H]1[C@@H]2CC[C@]2(C)C(C)CC[C@@H]12 (stereo partly drawn) [Compound 133, 3-amino-17-methyl-2-methoxyestra-1,3,5(10)-triene]",IC50,[1]; Homo sapiens,2650 ± 770 nM
same,IC50,"[5]; Homo sapiens, U-87 MG",14870 ± 10 nM
same,IC50,"[2]; Homo sapiens, PC-3",7160 ± 1420 nM
same,IC50,[3]; Homo sapiens,7310 ± 580 nM
"COc1cc2c(cc1NC=O)CC[C@@H]1[C@@H]2CC[C@]2(C)C(C)CC[C@@H]12 (stereo partly drawn) [Compound 136, 3-formamide-17-methyl-2-methoxyestra-1,3,5(10)-triene]",IC50,[1],590 nM
same,IC50,[5],640 ± 10 nM
same,IC50,[2],700 ± 100 nM
same,IC50,[3],610 nM
